Measurements published in ChEMBL document CHEMBL1143477, “Camptothecin binds to a synthetic peptide identified by a T7 phage display screen” (Bioorg Med Chem Lett, 2005).
pKd: −log10 of the molar value.

Key:
[1] = Dissociation constant for binding of camptothecin to the synthetic peptide NSSQSARR by using quartz-crystal microbalance (QCM) method after compound dissolved in 10 % DMSO at 25 degree C
[2] = Dissociation constant for binding of camptothecin to the synthetic peptide NSSQSARR by surface plasmon resonance (SPR) method after compound dissolved in 10 % DMSO at 25 degree C

Work on `CC[C@@]1(O)C(=O)OCc2c1cc1n(c2=O)Cc2cc3ccccc3nc2-1` [CAMPTOTHECIN] yielded a pKd [1] of 7.03 and a pKd [2] of 6.95.
